# Read-outs that look alike come from different tables or passages of the source.
# Tests used:
# Test in all cases: MIC of compounds alone and combined with antibacterials, broth microdilution (CLSI)
# Assay type in all cases: cell-based
# [1] = system: Enterobacter cloacae (ECL) isolates; conditions: for MIC: Enterobacter cloacae; for MIC ATB in combination: antibacterial combined with AF1 @ 4 μg/mL
# Summary of the method: (§1)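 Inoculum 5·10^5 CFU/mL (final), log phase, ca-MHB; 16-20 h, 35° C, ambient air. MIC = lowest conc. with no visible growth; ATB MIC read at each compound level.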
# [2] = system: Morganella morganii (MMO) isolates; conditions: for MIC: Morganella morganii
# Summary of the method: as §1
# [3] = system: Citrobacter koseri (CKR) isolates; conditions: for MIC ATB in combination: AF1 @ 4 μg/mL; for MIC: Citrobacter koseri
# Summary of the method: as §1
# [4] = system: Providencia stuartii (PST) isolates; conditions: for MIC ATB in combination: AF1 @ 4 μg/mL
# Summary of the method: as §1
compound,measurement,setting,value
"CC1(C)S[C@@H]2[C@H](NC(=O)[C@H](N)c3ccc(O)cc3)C(=O)N2[C@H]1C(=O)O [AMX, Amoxicillin]",MIC,"[1]; strain ECL 190310 (AmpC), CLA @ 4 μg/ml+ ATB",> 128 µg/mL
same,MIC,"[1]; strain ECL 190408 (TEM-1, CTX-M-15, OXA-1), ATB alone",> 256 µg/mL
same,MIC,"[1]; strain ECL 190408 (TEM-1, CTX-M-15, OXA-1), CLA @ 4 μg/ml+ ATB",> 128 µg/mL
same,MIC,"[1]; strain ECL 200138 (AmpC), ATB alone",> 256 µg/mL
same,MIC,"[1]; strain ECL 200138 (AmpC), CLA @ 4 μg/ml+ ATB",> 128 µg/mL
same,MIC,"[1]; strain ECL 200322 (TEM-1, CTX-M-15, OXA-1), ATB alone",> 256 µg/mL
same,MIC,"[1]; strain ECL 200322 (TEM-1, CTX-M-15, OXA-1), CLA @ 4 μg/ml+ ATB",> 128 µg/mL
same,MIC,"[1]; strain ECL 260033 (AmpC), ATB alone",> 256 µg/mL
same,MIC,"[1]; strain ECL 260033 (AmpC), CLA @ 4 μg/ml+ ATB",> 128 µg/mL
same,MIC,"[1]; strain ECL 260253 (TEM-1, KPC-3), ATB alone",> 256 µg/mL
same,MIC,"[1]; strain ECL 260253 (TEM-1, KPC-3), CLA @ 4 μg/ml+ ATB",> 128 µg/mL
same,MIC,"[1]; strain ECL 260323 (AmpC), ATB alone",> 256 µg/mL
same,MIC,"[1]; strain ECL 260323 (AmpC), CLA @ 4 μg/ml+ ATB",> 128 µg/mL
same,MIC,"[1]; strain ECL 260508 (TEM-1, CTX-M-15), ATB alone",> 256 µg/mL
same,MIC,"[1]; strain ECL 260508 (TEM-1, CTX-M-15), CLA @ 4 μg/ml+ ATB",> 128 µg/mL
same,MIC,"[1]; strain ECL NEM146383 (AmpC), ATB alone",> 256 µg/mL
same,MIC,"[1]; strain ECL NEM146383 (AmpC), CLA @ 4 μg/ml+ ATB",> 128 µg/mL
same,MIC,"[1]; strain ECL P99 (AmpC), ATB alone, read-out: MIC",> 1020 µg/mL
same,MIC,"[1]; strain ECL P99 (AmpC), CLA @ 4 μg/ml+ ATB",> 512 µg/mL
same,MIC,"[1]; strain ECL UFR12 (CTX-M-9, OXA-48), ATB alone",> 256 µg/mL
same,MIC,"[1]; strain ECL UFR12 (CTX-M-9, OXA-48), CLA @ 4 μg/ml+ ATB",> 128 µg/mL
same,MIC,"[1]; strain ECL UFR13 (TEM-1, SHV-12, CTX-M-9, OXA-48), ATB alone",> 256 µg/mL
same,MIC,"[1]; strain ECL UFR13 (TEM-1, SHV-12, CTX-M-9, OXA-48), CLA @ 4 μg/ml+ ATB",> 128 µg/mL
same,MIC,"[1]; strain ECL UFR14 (TEM-1, SHV-12, CTX-M-15, DHA-1, OXA-1, OXA-48), ATB alone",> 256 µg/mL
same,MIC,"[1]; strain ECL UFR14 (TEM-1, SHV-12, CTX-M-15, DHA-1, OXA-1, OXA-48), CLA @ 4 μg/ml+ ATB",> 128 µg/mL
same,MIC,"[1]; strain ECL UFR60 (TEM-1, CTX-M-15, KPC-2), ATB alone",> 256 µg/mL
same,MIC,"[1]; strain ECL UFR60 (TEM-1, CTX-M-15, KPC-2), CLA @ 4 μg/ml+ ATB",> 128 µg/mL
same,MIC,"[1]; strain ECL UFR70 (TEM-1, CTX-M-15, CMY-2, OXA-1, Porin loss), ATB alone",> 256 µg/mL
same,MIC,"[1]; strain ECL UFR70 (TEM-1, CTX-M-15, CMY-2, OXA-1, Porin loss), CLA @ 4 μg/ml+ ATB",> 128 µg/mL
same,MIC,"[1]; strain ECL UFR84 (TEM-1, AmpC, OXA-1), ATB alone",> 256 µg/mL
same,MIC,"[1]; strain ECL UFR84 (TEM-1, AmpC, OXA-1), CLA @ 4 μg/ml+ ATB",> 128 µg/mL
same,MIC,"[1]; strain ECL UFR85 (TEM-1, CTX-M-15, AmpC), ATB alone",> 256 µg/mL
same,MIC,"[1]; strain ECL UFR85 (TEM-1, CTX-M-15, AmpC), CLA @ 4 μg/ml+ ATB",> 128 µg/mL
same,MIC,"[1]; strain ECL UFR194 (OXA-48), ATB alone",> 128 µg/mL
same,MIC,"[1]; strain ECL UFR194 (OXA-48), CLA @ 4 μg/ml+ ATB",> 128 µg/mL
same,MIC,"[1]; strain ECL UFR195 (TEM-1, CTX-M-15, OXA-1, OXA-48), ATB alone",> 128 µg/mL
same,MIC,"[1]; strain ECL UFR195 (TEM-1, CTX-M-15, OXA-1, OXA-48), CLA @ 4 μg/ml+ ATB",> 128 µg/mL
same,MIC,"[1]; strain ECL UFR196 (TEM-1, CTX-M-15, OXA-1, OXA-48), ATB alone",> 128 µg/mL
same,MIC,"[1]; strain ECL UFR196 (TEM-1, CTX-M-15, OXA-1, OXA-48), CLA @ 4 μg/ml+ ATB",> 128 µg/mL
same,MIC,"[1]; strain ECL UFR200 (TEM-1, SHV-12, KPC-2), ATB alone",> 128 µg/mL
same,MIC,"[1]; strain ECL UFR200 (TEM-1, SHV-12, KPC-2), CLA @ 4 μg/ml+ ATB",> 128 µg/mL
same,MIC ATB in combination,[1]; strain ECL UFR195,256 µg/mL
same,MIC ATB in combination,[1]; strain ECL UFR197,256 µg/mL
same,MIC ATB in combination,[2],128 µg/mL
same,MIC ATB in combination,"[2]; MMO 200321, AF1 @ 4 μg/mL",256 µg/mL
same,MIC ATB in combination,"[2]; MMO UFR240, AF1 @ 4 μg/mL",32 µg/mL
same,MIC ATB in combination,"[2]; MMO UFR243, AF1 @ 4 μg/mL",64 µg/mL
same,MIC ATB in combination,"[2]; MMO UFR244, AF1 @ 4 μg/mL",64 µg/mL
same,MIC ATB in combination,"[2]; MMO UFR245, AF1 @ 4 μg/mL",64 µg/mL
same,MIC ATB in combination,"[2]; MMO UFR246, AF1 @ 4 μg/mL",64 µg/mL
same,MIC ATB in combination,"[2]; MMO UFR247, AF1 @ 4 μg/mL",32 µg/mL
same,MIC,[2],> 128 µg/mL
same,MIC,"[2]; strain MMO 200321 (TEM-1, CTX-M-15, OXA-1), ATB alone",> 256 µg/mL
same,MIC,"[2]; strain MMO 200321 (TEM-1, CTX-M-15, OXA-1), CLA @ 4 μg/ml+ ATB",> 128 µg/mL
same,MIC,"[2]; strain MMO UFR144 (TEM-1, CTX-M-15), ATB alone",> 128 µg/mL
same,MIC,"[2]; strain MMO UFR144 (TEM-1, CTX-M-15), CLA @ 4 μg/ml+ ATB",> 128 µg/mL
same,MIC,"[2]; strain MMO UFR240 (CTX-M-9), ATB alone",> 128 µg/mL
same,MIC,"[2]; strain MMO UFR240 (CTX-M-9), CLA @ 4 μg/ml+ ATB",> 128 µg/mL
same,MIC,"[2]; strain MMO UFR241 (TEM-1, CTX-M-15), ATB alone",> 128 µg/mL
same,MIC,"[2]; strain MMO UFR241 (TEM-1, CTX-M-15), CLA @ 4 μg/ml+ ATB",> 128 µg/mL
same,MIC,"[2]; strain MMO UFR242 (TEM-52), ATB alone",> 128 µg/mL
same,MIC,"[2]; strain MMO UFR242 (TEM-52), CLA @ 4 μg/ml+ ATB",> 128 µg/mL
same,MIC ATB in combination,[3]; CKO ROU,32 µg/mL
same,MIC ATB in combination,[3]; CKO UFR149,512 µg/mL
same,MIC ATB in combination,[3]; CKO UFR150,64 µg/mL
same,MIC,"[3]; strain CKO ROU (TEM-1, SHV-12, CTX-M-15, OXA-1, OXA-48), ATB alone",> 256 µg/mL
same,MIC,"[3]; strain CKO ROU (TEM-1, SHV-12, CTX-M-15, OXA-1, OXA-48), CLA @ 4 μg/ml+ ATB",> 128 µg/mL
same,MIC,"[3]; strain CKO UFR149 (OXA-48), ATB alone",> 128 µg/mL
same,MIC,"[3]; strain CKO UFR149 (OXA-48), CLA @ 4 μg/ml+ ATB",> 128 µg/mL
same,MIC,"[3]; strain CKO UFR150 (TEM-1, OXA-48), ATB alone",> 128 µg/mL
same,MIC,"[3]; strain CKO UFR150 (TEM-1, OXA-48), CLA @ 4 μg/ml+ ATB",> 128 µg/mL
same,MIC,[4],128 µg/mL
same,MIC ATB in combination,[4]; PST UFR94,16 µg/mL
same,MIC ATB in combination,[4]; PST UFR95,32 µg/mL
same,MIC ATB in combination,[4]; PST UFR235,32 µg/mL
same,MIC,[4]; Providencia stuartii,> 128 µg/mL

# From patent US20200017496A1 (priority 2017, published 2020)
